Data: EP0036652A2, “Cephalosporin derivatives, process for their preparation, corresponding compositions, their use in the treatment of diseases and intermediates” (F. HOFFMANN-LA ROCHE & CO. Aktiengesellschaft, priority 1980, dated 1981)
In brackets after ≈: the same amount, converted by molar mass.

Assays:
[1] = system: Enterobacter cloacae; assay: In vitro activity: minimum inhibitory concentration; type: cell-based; conditions: β-lactamase-producing strain, read-out: Mindesthemmkonzentration
Description: (§1) Zum Nachweis der antimikrobiellen Wirksamkeit der erwähnten Produkte wurden folgende repräsentative Vertreter getestet: • Produkt A: (6R,7R)-7-/2-(2-Amino-4-thiazolyl)-2-[(Z)-methoxyimino]acetamido/-3-/[(2,5-dihydro-6- methoxy-2-methyl-5-oxo-as-triazin-3-yl)-; thio]methyl/-8-oxo-5-thia-1-azabicyclo-[4.2.0]oct-2-en-2-carbonsäure-Natriumsalz • Produkt B: (6R,7R)-7-/2-(2-Amino-4-thiazolyl)-2-[(Z)-methoxyimino]acetamido/-3-/[(3-carboxy-1-methyl-1H-1,2,4-triazol-5-yl)thio]methyl/-8-oxo-5-thia-1-azabicyclo[4.2.0]oct-2-en-2-carbonsäure-Dinatriumsalz • Produkt C: (6R,7R)-7-[2-(2-Amino-4-thiazolyl)-2-((Z)-methoxyimino)acetamido]-3-[[[2,5-dihydro-2-methyl-5-oxo-6-[(pivaloyloxy)methoxy]-as- triazin-3-yl]thio]methyl]-[…]-1-azabicyclo[4.2.0]oct-2-en-2-carbonsäure-Natrium-. salz.
(§2) Aktivität in vitro: Mindesthemmkonzentration (µg/ml)

[2] = system: Escherichia coli; assay: as above; type: cell-based; conditions: β-lactamase-producing strain, read-out: Mindesthemmkonzentration
Description: as §1, §2

[3] = system: Haemophilus influenzae; assay: as above; type: cell-based; conditions: read-out: Mindesthemmkonzentration
Description: as §1, §2

[4] = system: Neisseria gonorrhoeae; assay: as above; type: cell-based; conditions: read-out: Mindesthemmkonzentration
Description: as §1, §2

[5] = system: Proteus mirabilis; assay: as above; type: cell-based; conditions: β-lactamase-producing strain, read-out: Mindesthemmkonzentration
Description: as §1, §2

[6] = system: Proteus vulgaris; assay: as above; type: cell-based; conditions: β-lactamase-producing strain, read-out: Mindesthemmkonzentration
Description: as §1, §2

[7] = system: Pseudomonas aeruginosa Stamm 1; assay: as above; type: cell-based; conditions: STAMM1; Pseudomonas aeruginosa Stamm 1, β-lactamase-producing strain; read-out: Mindesthemmkonzentration
Description: as §1, §2

[8] = system: Pseudomonas aeruginosa Stamm 2; assay: as above; type: cell-based; conditions: STAMM2; Pseudomonas aeruginosa Stamm 2, β-lactamase-producing strain; read-out: Mindesthemmkonzentration
Description: as §1, §2

[9] = system: Serratia marcescens; assay: as above; type: cell-based; conditions: β-lactamase-producing strain, read-out: Mindesthemmkonzentration
Description: as §1, §2

[10] = system: Staphylococcus aureus; assay: as above; type: cell-based; conditions: read-out: Mindesthemmkonzentration
Description: as §1, §2

[11] = Toxicity (LD100); type: in vivo
[12] = Half-life in the rat; parameters: species or system Ratte; conditions: in vivo, 20 mg/kg, after administration of 20 mg substance per kg body weight, read-out: Halbwertzeit
Description: Verbindungen der Formel I, worin X die Gruppe (b) darstellt, sowie die entsprechenden Ester, Salze und Hydrate zeichnen sich durch eine lange Halbwertzeit aus, d.h. sie bleiben lange im Organismus und können dementsprechend effektiver ihre keimtötende Funktion ausüben. So zeigt z.B. das Dinatriumsalz von (6R,7R)-7-/-2-(2-Amino-4-thiazolyl)-2-[(Z)-me- thoxyimino]acetamido/-3-/[(3-carboxy-1-methyl-1H-1,2,4-triazol-5-yl)thio]methyl/-8-oxo-5-thia-1-azabieyclo[4.2.0]-oct-2-en-2-carbonsäure eine Halbwertzeit an der Ratte von 22 Min. nach Verabreichung von 20 mg Substanz pro kg Körpergewicht.

Structure (SMILES) | MIC [1] [µg/mL] | MIC [2] [µg/mL] | MIC [3] [µg/mL] | MIC [4] [µg/mL] | MIC [5] [µg/mL] | MIC [6] [µg/mL] | MIC [7] [µg/mL] | MIC [8] [µg/mL] | MIC [9] [µg/mL] | MIC [10] [µg/mL] | LD100 ([11]; i.v.) [mg/kg] | LD100 ([11]; p.o.) [mg/kg] | LD100 ([11]; s.c.) [mg/kg] | half-life [12] [min]
CO/N=C(\C(=O)N[C@@H]1C(=O)N2C(C(=O)O)=C(CSc3nc(=O)c(OC)nn3C)CS[C@H]12)c1csc(N)n1 [Produkt A, (6R,7R)-7-/2-(2-Amino-4-thiazolyl)-2-[(Z)-methoxyimino]acetamido/-3-/[(2,5-dihydro-6-methoxy-2-methyl-5-oxo-as-triazin-3-yl)- ; thio]methyl/-8-oxo-5-thia-1-azabicyclo-[4.2.0]oct-2-en-2-carbonsäure-Natriumsalz] | 1.2 (≈ 2.11 µM) | 0.04 (≈ 0.0703 µM) | 0.01 (≈ 0.0176 µM) | 0.01 (≈ 0.0176 µM) | 0.04 (≈ 0.0703 µM) | 0.02 (≈ 0.0352 µM) | 40 (≈ 70.3 µM) | 80 (≈ 141 µM) | 0.16 (≈ 0.281 µM) | 2.5 (≈ 4.4 µM) | > 500 | >5000 | >4000 | 
CO/N=C(\C(=O)N[C@@H]1C(=O)N2C(C(=O)O)=C(CSc3nc(=O)c(OCOC(=O)C(C)(C)C)nn3C)CS[C@H]12)c1csc(N)n1 [Produkt C, (6R,7R)-7-[2-(2-Amino-4-thiazolyl)-2-((Z)-methoxyimino)acetamido]-3-[[[2,5-dihydro-2-methyl-5-oxo-6-[(pivaloyloxy)methoxy]-as-triazin-3-yl]thio]methyl]-[…]-1-azabicyclo[4.2.0]oct-2-en-2-carbonsäure-Natrium-. salz] | 25 (≈ 37.4 µM) | 0.1 (≈ 0.15 µM) | 0.04 (≈ 0.0598 µM) |  | 0.4 (≈ 0.598 µM) | 0.2 (≈ 0.299 µM) | 50 (≈ 74.8 µM) | 50 (≈ 74.8 µM) | 3.1 (≈ 4.64 µM) | 1.6 (≈ 2.39 µM) | >500 | >5000 | >4000 | 
CO/N=C(\C(=O)N[C@@H]1C(=O)N2C(C(=O)O)=C(CSc3nc(C(=O)O)nn3C)CS[C@H]12)c1csc(N)n1 [Produkt B, (6R,7R)-7-/2-(2-Amino-4-thiazolyl)-2-[(Z)-methoxyimino]acetamido/-3-/[(3-carboxy-1-methyl-1H-1,2,4-triazol-5-yl)thio]methyl/-8-oxo-5-thia-1-azabicyclo[4.2.0]oct-2-en-2-carbonsäure-Dinatriumsalz] | 10 (≈ 18 µM) | 0.08 (≈ 0.144 µM) | 0.01 (≈ 0.018 µM) | 0.0025 (≈ 0.00451 µM) | 0.01 (≈ 0.018 µM) | 0.01 (≈ 0.018 µM) | 40 (≈ 72.1 µM) | 40 (≈ 72.1 µM) | 0.16 (≈ 0.289 µM) | 10 (≈ 18 µM) |  | >5000 |  | 22
